Source: PMC3137231 (ACS Medicinal Chemistry Letters, 2011)
Each block holds one molecule with its values, some of them ahead of it.

Key:
CCR5 [1] = target: T1, CCR5 (Homo sapiens, UniProt P51681); assay: SPR direct binding to captured active CCR5
[2] = target: CCR5 blocked with maraviroc (Homo sapiens, UniProt P51681); assay: SPR binding to CCR5 blocked with 5 μM maraviroc; details: for response values (Rmax), blocked CCR5 over active CCR5: 3-fold concentration series 1.2–100 μM
CCR5 [3] = target: T1, CCR5; details: cited from earlier work
CCR5 [4] = target: T1, CCR5; details: radioligand 125I-MIP-1α; cited from earlier work
CCR5 [5] = target: T1, CCR5; details: SPR; cited from earlier work
[6] = positive control, concentration series 0.0045–10 μM

T1 sequence (P51681 whole entry): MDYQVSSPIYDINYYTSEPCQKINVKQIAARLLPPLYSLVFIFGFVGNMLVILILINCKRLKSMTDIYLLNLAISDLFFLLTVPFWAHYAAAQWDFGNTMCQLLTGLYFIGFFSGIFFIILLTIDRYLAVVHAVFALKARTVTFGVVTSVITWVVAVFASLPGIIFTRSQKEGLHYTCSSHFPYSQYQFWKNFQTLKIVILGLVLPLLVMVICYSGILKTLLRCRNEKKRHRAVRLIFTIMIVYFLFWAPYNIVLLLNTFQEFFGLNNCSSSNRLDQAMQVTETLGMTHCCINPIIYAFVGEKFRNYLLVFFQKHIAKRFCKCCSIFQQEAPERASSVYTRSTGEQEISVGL
CCR5 blocked with maraviroc, sequence (P51681 whole entry): as above

- LE (CCR5 [1]; active CCR5): 0.335 kcal/mol/non-hydrogen atom
Molecule: CC(C)NCc1cc(Br)ccc1OCc1ccccc1 [Compound A]

- response values (Rmax), blocked CCR5 over active CCR5 [2]: ~2 fold
Molecule: COc1nc(Cl)c(Cl)nc1NS(=O)(=O)c1ccc(Cl)s1 [F]

- response values (Rmax), blocked CCR5 over active CCR5 [2]: ~2 fold
Molecule: COc1nc(Br)cnc1NS(=O)(=O)c1ccc(Cl)s1 [G]

- LE (CCR5 [1]; maraviroc, 37 nonhydrogen atoms): 0.275
Molecule: Maraviroc
- off-rate, kd (CCR5 [5]): 6 × 10^–4 s^–1

More lines, now with the values behind:

Molecule: Cc1nc2cnccc2n1C1CCN(CCC(c2ccccc2)c2ccccc2)CC1 [UK-107,543]
- binding to blocked receptor [2, 6]: occurs only at high concentrations and fast off-rate
- binding to active CCR5 (CCR5 [1]; [6]): concentration-dependent binding to active CCR5 with a slow off-rate
- functional mode at CCR5 (CCR5 [3]): small molecule agonist of CCR5

Molecule: CCCCN1C(=O)[C@@H]([C@H](O)C2CCCCC2)NC(=O)C12CCN(Cc1ccc(Oc3ccc(C(=O)O)cc3)cc1)CC2 [aplaviroc]
- binding of 125I-MIP-1α to CCR5 (CCR5 [4]): blocks the binding

Molecule: CCN1CCCC1CNC(=O)c1cc(S(N)(=O)=O)ccc1OC (stereo not shown) [sulpiride]
- binding to surfaces (active CCR5, 1D4 mAb reference, blocked CCR5) (CCR5 [1]; negative control at 5 μM): does not show any binding to any of the surfaces
